Where two headings read alike, the source gives them in different places. Marks after values point to notes of the source that are not given here.
What was measured:
[1] = system: rabbits; details: cited from earlier work
[2] = system: rabbits; test: Oral LD50 in rabbits (literature); format: in vivo, rabbit; details: for equivalent dose of the LD50 for a human equivalent of 75 kg: for 10 days
Procedure: For a human equivalent of 75 kg, the equivalent dose would be 210,000 and 255,000 mg/day for 10 days.

[3] = biological target: T1, Tannase sourced from Aspergillus oryzae (Aspergillus oryzae, UniProt P78581); test: Tannase (10^−3 U/mL) hydrolysis of galloyl glycosides, LC-MS; format: biochemical
T1 construct: purchased
Procedure: Standards solutions of monogalloyl glucose, pentagalloyl glucose, and a gallotannin isolate were incubated with tannase at 10^−3 U/mL to characterize the by-products and relative rates of galloyl derivative hydrolysis. 250 μL of 200 ppm monogalloyl glucose or pentagalloyl glucose were incubated with 650 μL of buffer set to the enzyme's optimum conditions (pH 5.5, 0.1 M citric acid buffer, 30° C.), and 100 μL of tannase 10^−3 U/mL for final standard concentrations of 50 ppm. […] Experiments were performed in a static water bath and prepared in triplicate for each time point at 0, 0.016, 0.033, 0.050, 0.083, 0.167, 0.5, 1, 1.5, 2, 3, 4 h. To end enzymatic activity, solutions were immediately diluted with 1000 μL 0.1% formic acid MeOH. Lastly, samples were filtered with a 0.45 μm syringe filter prior to LC-MS analysis.
Galloyl derivatives were characterized and quantified by use of LC-MS on a Thermo Finnigan HPLC. Separations were in reversed-phase using a Finnigan Surveyor HPLC coupled to a Surveyor PDA detector and gradient separations were performed using a Phenomenex Kinetex™ (Bannockburn, II) C18 column, (150×4.6 mm, 2.6 μm) at room temperature. Injections were made into the column by use of a 50 μL sample loop. […] A gradient was run of 0% Phase B for 2 min and changed to 10% Phase B in 4 min, 10% Phase B was held to 10 min, 10 to 40% Phase B in 25 min, and 40% to 65% Phase B in 35 min, 65% to 85% Phase B in 41 min, 85% was held to 49 min before returning to initial conditions. The electrospray interface worked in negative ionization mode. Source and capillary temperatures were set at 325° C., source voltage was 4.0 kV, capillary voltage was set at −47 V, and collision energy for MS/MS analysis was set at 35 eV. The instrument operated with sheath gas and auxiliary gas (N2) flow rates set at 10 units/min and 5 units/min, respectively. The instrument was tuned specifically for pentagalloyl glucose. […] Digalloyl glucoses, and trigalloyl glucoses were quantified at 280 nm and reported as equivalents of monogalloyl glucose. Tetragalloyl glucose and higher were quantified and reported as pentagalloyl glucose equivalents.
Tannase sourced from Aspergillus oryzae was incubated with standard solutions of monogalloyl glucose, pentagalloyl glucose, and a gallotannin isolate sourced from mango in an effort to characterize and quantify the intermediates formed during hydrolysis. […] Characterization of the different galloyl derivatives that can be formed during tannase hydrolysis is critical as they are likely to have different bio efficacies.

[4] = biological target: T2, tannase (Aspergillus oryzae, UniProt P78581); test: Tannase (20 U/mL) hydrolysis to free gallic acid, rhodanine assay; format: biochemical
T2 construct: purchased
T2 sequence (P78581 19-588): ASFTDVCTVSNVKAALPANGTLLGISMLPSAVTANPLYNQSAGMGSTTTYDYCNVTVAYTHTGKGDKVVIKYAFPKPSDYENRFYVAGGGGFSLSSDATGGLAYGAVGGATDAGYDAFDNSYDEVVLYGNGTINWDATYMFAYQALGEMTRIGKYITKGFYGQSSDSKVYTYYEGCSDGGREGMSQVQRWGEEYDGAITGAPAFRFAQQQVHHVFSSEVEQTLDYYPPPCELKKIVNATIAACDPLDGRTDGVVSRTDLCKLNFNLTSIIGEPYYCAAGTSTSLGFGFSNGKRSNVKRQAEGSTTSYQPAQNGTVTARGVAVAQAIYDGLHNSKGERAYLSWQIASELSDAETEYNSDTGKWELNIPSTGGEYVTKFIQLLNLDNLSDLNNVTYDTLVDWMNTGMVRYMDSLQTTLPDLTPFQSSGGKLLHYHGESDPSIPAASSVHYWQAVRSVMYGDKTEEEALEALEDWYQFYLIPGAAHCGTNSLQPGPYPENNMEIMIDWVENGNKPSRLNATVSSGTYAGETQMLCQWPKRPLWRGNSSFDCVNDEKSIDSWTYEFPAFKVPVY
Procedure: 200 uL of 641±16 and 2051±46 ppm GAE gallotannin isolate was aliquotted into test tubes and made up to 1 mL with 20 U/mL tannase hydrated in pH 5.5, 0.1 M citrate buffer. Samples were incubated for 0, 0.16 (10 min), 0.5, 1, 2, 4, 6, 12, and 24 h at 35° C. in a static water bath. After each time point had elapsed, 1 mL of 0.1% formic acid MeOH was added to each test tube. 50 and 100 ppm monogalloyl glucose was also treated with tannase under the same conditions. The total pro-gallic acid content of the gallotannin isolate and monogalloyl glucose were quantified by the colorimetric rhodanine assay modified from Inoue & Hagerman (1988). 600 μL of 0.667% rhodanine in methanol was added to 400 μL of hydrolyzed tannin fraction sample. After 10 min, 400 μL of 0.5 M NaOH was added to develop color for 20 min until bringing the final volume to 10 mL with deionized water. Absorbance was measured at 520 nm.

[5] = Stability of gallic acid at pH 5.5 over 24 h; format: physicochemical
[6] = system: 3T3-L1 adipocytes; details: cited from earlier work

Compound: O=C(OC[C@H]1O[C@@H](OC(=O)c2cc(O)c(O)c(OC(=O)c3cc(O)c(O)c(O)c3)c2)[C@H](OC(=O)c2cc(O)c(O)c(OC(=O)c3cc(O)c(O)c(O)c3)c2)[C@@H](OC(=O)c2cc(O)c(O)c(OC(=O)c3cc(O)c(O)c(O)c3)c2)[C@@H]1OC(=O)c1cc(O)c(O)c(OC(=O)c2cc(O)c(O)c(O)c2)c1)c1cc(O)c(O)c(OC(=O)c2cc(O)c(O)c(O)c2)c1 [tannic acid]
- oral LD50 ([1]; rabbits, for 10 days): 3400 mg/kg/day
- equivalent dose of the LD50 for a human equivalent of 75 kg [2]: 255,000 mg/day
- margin of the highest selected study dose (566 mg/L) below the LD50 dose ([2]; human equivalent of 75 kg): 451 fold

Compound: monogalloyl glucose
- time to reach the same amount of generated gallic acid as pentagalloyl glucose at 2 h [3]: 4 h
- total pro-gallic acid content generated (molar basis) ([3]; 2 h incubation): 28.9±0.26%
- hydrolysis to free gallic acid ([4]; 1 h incubation with 20 U/mL of tannase): completely hydrolyzed to free gallic acid
- Free gallic acid from hydrolysis with 20 U/mL of tannase ([4]; monogalloyl glucose 50 mg/L, pH 5.5, 0 h): 1.26 ± 0.13 ^a mg/L
- Free gallic acid from hydrolysis with 20 U/mL of tannase ([4]; monogalloyl glucose 50 mg/L, pH 5.5, 1 h): 19.9 ± 0.13 ^b mg/L
- Free gallic acid from hydrolysis with 20 U/mL of tannase ([4]; monogalloyl glucose 50 mg/L, pH 5.5, 2 h): 20.2 ± 0.88 ^b mg/L
- Free gallic acid from hydrolysis with 20 U/mL of tannase ([4]; monogalloyl glucose 50 mg/L, pH 5.5, 12 h): 20.1 ± 0.25 ^b mg/L
- Free gallic acid from hydrolysis with 20 U/mL of tannase ([4]; monogalloyl glucose 50 mg/L, pH 5.5, 24 h): 19.9 ± 0.87 ^b mg/L
- Free gallic acid from hydrolysis with 20 U/mL of tannase ([4]; monogalloyl glucose 100 mg/L, pH 5.5, 0 h): 1.76 ± 0.25 ^a mg/L
- Free gallic acid from hydrolysis with 20 U/mL of tannase ([4]; monogalloyl glucose 100 mg/L, pH 5.5, 1 h): 39.7 ± 0.50 ^b mg/L
- Free gallic acid from hydrolysis with 20 U/mL of tannase ([4]; monogalloyl glucose 100 mg/L, pH 5.5, 2 h): 42.5 ± 1.01 ^b mg/L
- Free gallic acid from hydrolysis with 20 U/mL of tannase ([4]; monogalloyl glucose 100 mg/L, pH 5.5, 12 h): 39.2 ± 1.89 ^b mg/L
- Free gallic acid from hydrolysis with 20 U/mL of tannase ([4]; monogalloyl glucose 100 mg/L, pH 5.5, 24 h): 35.7 ± 3.14 ^b mg/L

Compound: O=C(OC[C@H]1O[C@@H](OC(=O)c2cc(O)c(O)c(O)c2)[C@H](OC(=O)c2cc(O)c(O)c(O)c2)[C@@H](OC(=O)c2cc(O)c(O)c(O)c2)[C@@H]1OC(=O)c1cc(O)c(O)c(O)c1)c1cc(O)c(O)c(O)c1 [pentagalloyl glucose]
- total pro-gallic acid content generated (molar basis) ([3]; 2 h incubation): 45.5±0.53%
- pentagalloyl glucose hydrolyzed ([3]; 2 h incubation, pH 5.5, 30° C.): 97.2±0.27%

Compound: O=C(O)c1cc(O)c(O)c(O)c1 [Gallic Acid, gallic acid]
- oral LD50 ([1]; rabbit, in vivo, po): 2800 mg/kg/day
- stability of gallic acid at the conditions of the method ([5]; 50 and 100 ppm gallic acid in pH 5.5 buffer, after 24 h): did not show any indication of degradation
- Gallic acid concentration (stability at pH 5.5) ([5]; gallic acid 50 mg/L, pH 5.5, 0 h): 48.2 ± 1.28 ^a mg/L
- Gallic acid concentration (stability at pH 5.5) ([5]; gallic acid 50 mg/L, pH 5.5, 1 h): 50.4 ± 0.45 ^b mg/L
- Gallic acid concentration (stability at pH 5.5) ([5]; gallic acid 50 mg/L, pH 5.5, 2 h): 51.2 ± 0.62 ^b mg/L
- Gallic acid concentration (stability at pH 5.5) ([5]; gallic acid 50 mg/L, pH 5.5, 12 h): 47.2 ± 0.87 ^b mg/L
- Gallic acid concentration (stability at pH 5.5) ([5]; gallic acid 50 mg/L, pH 5.5, 24 h): 49.4 ± 0.37 ^b mg/L
- Gallic acid concentration (stability at pH 5.5) ([5]; gallic acid 100 mg/L, pH 5.5, 0 h): 107 ± 3.07 ^a mg/L
- Gallic acid concentration (stability at pH 5.5) ([5]; gallic acid 100 mg/L, pH 5.5, 1 h): 102 ± 2.43 ^b mg/L
- Gallic acid concentration (stability at pH 5.5) ([5]; gallic acid 100 mg/L, pH 5.5, 2 h): 111 ± 1.63 ^b mg/L
- Gallic acid concentration (stability at pH 5.5) ([5]; gallic acid 100 mg/L, pH 5.5, 12 h): 97.9 ± 1.38 ^b mg/L
- Gallic acid concentration (stability at pH 5.5) ([5]; gallic acid 100 mg/L, pH 5.5, 24 h): 108 ± 1.11 ^b mg/L
- equivalent dose of the LD50 for a human equivalent of 75 kg [2]: 210,000 mg/day

Compound: Oc1cccc(O)c1O [PG, pyrogallol]
- adipogenesis and lipid accumulation [6]: inhibit adipogenesis and reduce lipid accumulation
- thermogenesis [6]: promotes thermogenesis
